ChEMBL document CHEMBL5442175, “EUbOPEN Chemogenomics Library - PDSP Secondary Binding” (2024)
Counter-ions that a name gives are not always drawn.

Key:
[1] = molecular target: Sigma non-opioid intracellular receptor 1 (Homo sapiens, UniProt Q99720); test: (§1) PDSP Secondary Binding target: SIGMAR1 - Compounds are tested at 10 uM concentration, plate are incubated at room temperature in the dark for 90 minutes. Reaction are stopped by vacuum filtration onto 0.3% polyethyleneimine soaked filter mats using Filtermate harvester. Scintillation cocktail is then melted onto microwave-dried filters on a hot plate and the radio activity is counted in Microbia counter.
Sigma non-opioid intracellular receptor 1, sequence (Q99720 whole entry): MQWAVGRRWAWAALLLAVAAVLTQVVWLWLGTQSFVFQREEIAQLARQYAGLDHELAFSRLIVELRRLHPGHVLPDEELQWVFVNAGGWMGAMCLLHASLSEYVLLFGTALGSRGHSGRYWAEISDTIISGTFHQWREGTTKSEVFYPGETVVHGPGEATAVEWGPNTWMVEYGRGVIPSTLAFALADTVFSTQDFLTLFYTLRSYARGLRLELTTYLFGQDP

[2] = molecular target: Sodium-dependent noradrenaline transporter (Homo sapiens, UniProt P23975); test: as §1, with “SLC6A2” for “SIGMAR1”
Sodium-dependent noradrenaline transporter, sequence (P23975 whole entry): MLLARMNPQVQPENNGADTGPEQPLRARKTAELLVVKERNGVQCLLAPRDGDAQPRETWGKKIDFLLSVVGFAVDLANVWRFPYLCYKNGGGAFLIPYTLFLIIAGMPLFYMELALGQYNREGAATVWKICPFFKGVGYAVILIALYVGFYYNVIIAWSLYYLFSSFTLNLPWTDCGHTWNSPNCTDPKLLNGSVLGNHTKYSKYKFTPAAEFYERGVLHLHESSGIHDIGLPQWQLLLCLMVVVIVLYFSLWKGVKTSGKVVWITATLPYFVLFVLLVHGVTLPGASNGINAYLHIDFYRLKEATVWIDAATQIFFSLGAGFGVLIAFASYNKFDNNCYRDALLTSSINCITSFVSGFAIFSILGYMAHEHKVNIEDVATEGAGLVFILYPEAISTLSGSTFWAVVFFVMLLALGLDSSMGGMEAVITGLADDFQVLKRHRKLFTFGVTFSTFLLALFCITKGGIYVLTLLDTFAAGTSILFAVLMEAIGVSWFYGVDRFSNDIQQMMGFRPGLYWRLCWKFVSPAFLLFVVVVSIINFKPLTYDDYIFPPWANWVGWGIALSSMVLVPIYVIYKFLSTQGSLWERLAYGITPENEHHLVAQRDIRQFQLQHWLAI

D(2) dopamine receptor = D(2) dopamine receptor (Homo sapiens, UniProt P14416); test: as §1, with “DRD2” for “SIGMAR1”
D(2) dopamine receptor, sequence (P14416 whole entry): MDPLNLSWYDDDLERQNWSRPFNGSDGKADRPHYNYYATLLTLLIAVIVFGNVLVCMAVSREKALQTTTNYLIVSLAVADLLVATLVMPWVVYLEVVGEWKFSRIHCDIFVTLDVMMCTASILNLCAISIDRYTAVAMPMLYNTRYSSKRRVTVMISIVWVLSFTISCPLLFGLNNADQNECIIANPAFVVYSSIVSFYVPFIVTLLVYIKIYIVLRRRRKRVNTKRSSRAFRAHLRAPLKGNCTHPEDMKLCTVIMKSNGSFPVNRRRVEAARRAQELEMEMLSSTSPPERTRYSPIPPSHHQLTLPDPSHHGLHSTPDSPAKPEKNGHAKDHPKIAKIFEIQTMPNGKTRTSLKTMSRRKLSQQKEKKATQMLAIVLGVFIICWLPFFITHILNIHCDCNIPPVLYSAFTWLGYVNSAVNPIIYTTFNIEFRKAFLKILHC

[3] = molecular target: Sodium-dependent serotonin transporter (Homo sapiens, UniProt P31645); test: as §1, with “SLC6A4” for “SIGMAR1”
Sodium-dependent serotonin transporter, sequence (P31645 whole entry): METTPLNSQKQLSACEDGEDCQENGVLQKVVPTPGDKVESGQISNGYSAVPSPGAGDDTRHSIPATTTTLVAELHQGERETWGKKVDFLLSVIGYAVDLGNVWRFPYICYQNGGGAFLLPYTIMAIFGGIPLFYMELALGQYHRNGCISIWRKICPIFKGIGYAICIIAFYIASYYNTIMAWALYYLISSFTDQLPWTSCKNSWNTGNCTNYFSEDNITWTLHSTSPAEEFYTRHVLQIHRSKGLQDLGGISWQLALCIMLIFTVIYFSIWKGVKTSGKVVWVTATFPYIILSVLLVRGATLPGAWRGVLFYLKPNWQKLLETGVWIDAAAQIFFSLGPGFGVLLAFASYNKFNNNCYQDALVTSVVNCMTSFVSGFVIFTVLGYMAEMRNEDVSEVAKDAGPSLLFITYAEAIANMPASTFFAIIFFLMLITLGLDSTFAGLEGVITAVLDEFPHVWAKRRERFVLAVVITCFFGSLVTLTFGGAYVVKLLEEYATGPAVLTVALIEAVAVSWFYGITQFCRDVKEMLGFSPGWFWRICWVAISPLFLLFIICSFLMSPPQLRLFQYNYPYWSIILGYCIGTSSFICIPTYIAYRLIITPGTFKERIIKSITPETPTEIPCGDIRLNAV

[4] = molecular target: Sigma intracellular receptor 2 (Homo sapiens, UniProt Q5BJF2); test: as §1, with “TMEM97” for “SIGMAR1”
Sigma intracellular receptor 2, sequence (Q5BJF2 whole entry): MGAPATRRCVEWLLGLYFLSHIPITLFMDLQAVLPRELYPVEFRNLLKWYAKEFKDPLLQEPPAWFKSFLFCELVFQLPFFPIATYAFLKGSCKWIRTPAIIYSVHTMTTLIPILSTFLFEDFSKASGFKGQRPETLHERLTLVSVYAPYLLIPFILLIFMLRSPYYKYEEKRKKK

[5] = molecular target: 5-hydroxytryptamine receptor 2A (Homo sapiens, UniProt P28223); test: as §1, with “HTR2A” for “SIGMAR1”
5-hydroxytryptamine receptor 2A, sequence (P28223 whole entry): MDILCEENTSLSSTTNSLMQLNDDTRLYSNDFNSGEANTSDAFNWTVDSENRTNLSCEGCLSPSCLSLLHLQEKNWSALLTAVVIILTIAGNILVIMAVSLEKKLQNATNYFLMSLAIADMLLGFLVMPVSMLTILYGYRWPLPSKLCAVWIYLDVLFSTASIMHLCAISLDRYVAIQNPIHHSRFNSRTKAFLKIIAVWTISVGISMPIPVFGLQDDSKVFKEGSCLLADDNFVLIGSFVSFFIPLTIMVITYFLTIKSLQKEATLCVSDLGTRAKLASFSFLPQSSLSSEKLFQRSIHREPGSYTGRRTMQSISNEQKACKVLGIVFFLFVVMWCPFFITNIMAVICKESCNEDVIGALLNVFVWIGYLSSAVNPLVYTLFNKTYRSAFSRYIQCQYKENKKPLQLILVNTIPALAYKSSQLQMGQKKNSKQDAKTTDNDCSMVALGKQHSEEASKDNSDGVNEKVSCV

[6] = molecular target: T1, 5-hydroxytryptamine receptor 2C (Homo sapiens, UniProt P28335); test: as §1, with “HTR2C” for “SIGMAR1”
T1 sequence (P28335 whole entry): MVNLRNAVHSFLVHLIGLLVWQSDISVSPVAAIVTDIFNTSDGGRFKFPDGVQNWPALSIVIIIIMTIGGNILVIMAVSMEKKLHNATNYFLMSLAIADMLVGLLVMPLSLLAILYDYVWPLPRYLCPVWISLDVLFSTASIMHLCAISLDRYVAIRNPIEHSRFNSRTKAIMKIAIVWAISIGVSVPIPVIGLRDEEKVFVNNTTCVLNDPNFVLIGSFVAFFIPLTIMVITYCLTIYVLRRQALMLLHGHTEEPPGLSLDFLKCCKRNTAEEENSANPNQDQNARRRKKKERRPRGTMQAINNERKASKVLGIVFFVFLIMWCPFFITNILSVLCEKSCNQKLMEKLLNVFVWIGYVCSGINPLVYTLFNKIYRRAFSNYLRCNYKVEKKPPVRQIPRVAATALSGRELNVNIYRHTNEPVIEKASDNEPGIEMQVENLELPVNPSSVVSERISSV

[7] = molecular target: T2, Alpha-2A adrenergic receptor (Homo sapiens, UniProt P08913); test: as §1, with “ADRA2A” for “SIGMAR1”
T2 sequence (P08913 whole entry): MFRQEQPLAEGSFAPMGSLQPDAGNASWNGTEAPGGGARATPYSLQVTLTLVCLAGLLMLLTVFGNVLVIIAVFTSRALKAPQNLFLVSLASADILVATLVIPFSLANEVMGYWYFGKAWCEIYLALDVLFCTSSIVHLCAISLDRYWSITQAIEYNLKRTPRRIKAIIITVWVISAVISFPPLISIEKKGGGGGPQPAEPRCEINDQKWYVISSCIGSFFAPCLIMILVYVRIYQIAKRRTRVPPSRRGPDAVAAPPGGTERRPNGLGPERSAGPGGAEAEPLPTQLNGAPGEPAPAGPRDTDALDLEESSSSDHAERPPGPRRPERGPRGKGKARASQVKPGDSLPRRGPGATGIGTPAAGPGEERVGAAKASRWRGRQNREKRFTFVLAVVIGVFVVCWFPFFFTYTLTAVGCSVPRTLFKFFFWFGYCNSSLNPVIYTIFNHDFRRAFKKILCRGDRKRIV

D(4) dopamine receptor = molecular target: T3, D(4) dopamine receptor (Homo sapiens, UniProt P21917); test: as §1, with “DRD4” for “SIGMAR1”
T3 sequence (P21917 whole entry): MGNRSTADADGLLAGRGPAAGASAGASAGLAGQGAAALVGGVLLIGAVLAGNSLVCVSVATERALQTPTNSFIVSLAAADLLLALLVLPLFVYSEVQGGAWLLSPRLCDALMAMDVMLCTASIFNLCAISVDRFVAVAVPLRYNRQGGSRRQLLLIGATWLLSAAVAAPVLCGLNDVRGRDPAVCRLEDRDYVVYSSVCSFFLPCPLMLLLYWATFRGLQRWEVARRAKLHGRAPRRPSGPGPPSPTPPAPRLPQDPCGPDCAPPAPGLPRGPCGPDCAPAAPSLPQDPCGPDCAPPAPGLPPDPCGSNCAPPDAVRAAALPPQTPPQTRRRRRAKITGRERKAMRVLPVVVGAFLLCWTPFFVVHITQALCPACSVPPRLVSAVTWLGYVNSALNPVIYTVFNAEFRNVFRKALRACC

Translocator protein = Translocator protein (Homo sapiens, UniProt P30536); test: as §1, with “TSPO” for “SIGMAR1”
Translocator protein, sequence (P30536 whole entry): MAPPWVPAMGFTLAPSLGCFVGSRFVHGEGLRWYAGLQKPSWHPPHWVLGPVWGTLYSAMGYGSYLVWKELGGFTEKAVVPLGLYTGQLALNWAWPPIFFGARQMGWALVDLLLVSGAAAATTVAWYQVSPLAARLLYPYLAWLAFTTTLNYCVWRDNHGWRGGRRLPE

[8] = molecular target: Kappa-type opioid receptor (Homo sapiens, UniProt P41145); test: as §1, with “OPRK1” for “SIGMAR1”
Kappa-type opioid receptor, sequence (P41145 whole entry): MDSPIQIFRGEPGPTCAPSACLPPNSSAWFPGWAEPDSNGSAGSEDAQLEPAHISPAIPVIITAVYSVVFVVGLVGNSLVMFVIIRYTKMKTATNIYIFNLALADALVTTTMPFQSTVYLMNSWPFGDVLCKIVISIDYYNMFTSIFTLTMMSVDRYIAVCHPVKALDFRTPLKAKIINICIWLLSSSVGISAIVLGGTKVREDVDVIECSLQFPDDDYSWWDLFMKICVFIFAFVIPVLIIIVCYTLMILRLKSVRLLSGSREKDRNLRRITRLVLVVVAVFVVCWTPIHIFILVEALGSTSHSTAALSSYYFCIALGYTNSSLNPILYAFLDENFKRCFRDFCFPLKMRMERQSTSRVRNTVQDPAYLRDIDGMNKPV

[9] = molecular target: Sodium-dependent dopamine transporter (Homo sapiens, UniProt Q01959); test: as §1, with “SLC6A3” for “SIGMAR1”
Sodium-dependent dopamine transporter, sequence (Q01959 whole entry): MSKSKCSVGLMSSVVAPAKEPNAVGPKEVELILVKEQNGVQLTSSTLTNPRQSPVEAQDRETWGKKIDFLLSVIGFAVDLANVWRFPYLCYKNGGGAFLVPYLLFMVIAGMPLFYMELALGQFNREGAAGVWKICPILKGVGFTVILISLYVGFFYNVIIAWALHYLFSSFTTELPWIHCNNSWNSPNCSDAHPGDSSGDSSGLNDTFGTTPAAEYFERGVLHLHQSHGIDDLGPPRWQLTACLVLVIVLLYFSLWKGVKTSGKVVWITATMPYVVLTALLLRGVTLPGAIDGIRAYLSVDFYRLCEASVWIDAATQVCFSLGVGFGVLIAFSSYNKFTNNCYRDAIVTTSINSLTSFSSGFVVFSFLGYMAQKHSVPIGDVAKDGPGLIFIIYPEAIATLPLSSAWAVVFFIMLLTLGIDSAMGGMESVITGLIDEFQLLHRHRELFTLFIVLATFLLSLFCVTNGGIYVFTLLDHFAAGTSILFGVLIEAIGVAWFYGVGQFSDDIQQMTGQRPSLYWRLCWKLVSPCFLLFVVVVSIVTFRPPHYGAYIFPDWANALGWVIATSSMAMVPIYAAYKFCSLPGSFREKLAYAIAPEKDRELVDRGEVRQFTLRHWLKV

D(1B) dopamine receptor = D(1B) dopamine receptor (Homo sapiens, UniProt P21918); test: as §1, with “DRD5” for “SIGMAR1”
D(1B) dopamine receptor, sequence (P21918 whole entry): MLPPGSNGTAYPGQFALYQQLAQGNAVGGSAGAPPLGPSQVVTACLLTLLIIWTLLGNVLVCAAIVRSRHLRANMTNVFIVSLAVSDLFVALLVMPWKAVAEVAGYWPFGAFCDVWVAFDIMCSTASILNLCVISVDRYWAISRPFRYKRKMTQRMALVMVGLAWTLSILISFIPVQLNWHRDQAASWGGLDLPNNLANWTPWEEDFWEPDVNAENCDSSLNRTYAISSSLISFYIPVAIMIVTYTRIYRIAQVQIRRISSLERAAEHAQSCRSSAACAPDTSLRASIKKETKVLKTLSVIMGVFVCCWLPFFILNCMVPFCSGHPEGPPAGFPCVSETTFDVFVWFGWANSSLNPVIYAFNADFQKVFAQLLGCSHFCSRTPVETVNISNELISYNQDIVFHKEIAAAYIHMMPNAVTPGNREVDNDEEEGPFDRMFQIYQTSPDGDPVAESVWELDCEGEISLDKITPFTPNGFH

Mu-type opioid receptor = Mu-type opioid receptor (Homo sapiens, UniProt P35372); test: as §1, with “OPRM1” for “SIGMAR1”
Mu-type opioid receptor, sequence (P35372 whole entry): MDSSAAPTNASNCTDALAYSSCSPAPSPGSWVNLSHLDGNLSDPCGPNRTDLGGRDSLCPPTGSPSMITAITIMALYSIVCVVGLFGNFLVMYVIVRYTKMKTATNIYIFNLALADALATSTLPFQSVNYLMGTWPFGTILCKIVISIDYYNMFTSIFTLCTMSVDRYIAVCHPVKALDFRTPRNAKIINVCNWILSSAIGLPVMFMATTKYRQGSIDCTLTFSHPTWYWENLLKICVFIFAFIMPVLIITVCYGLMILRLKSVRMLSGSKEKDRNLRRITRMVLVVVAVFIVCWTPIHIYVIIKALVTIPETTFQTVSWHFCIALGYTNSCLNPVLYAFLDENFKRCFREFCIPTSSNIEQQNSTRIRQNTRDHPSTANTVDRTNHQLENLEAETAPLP

[10] = molecular target: 5-hydroxytryptamine receptor 2B (Homo sapiens, UniProt P41595); test: as §1, with “HTR2B” for “SIGMAR1”
[11] = molecular target: T4, Alpha-2B adrenergic receptor (Homo sapiens, UniProt P18089); test: as §1, with “ADRA2B” for “SIGMAR1”
T4 sequence (P18089 whole entry): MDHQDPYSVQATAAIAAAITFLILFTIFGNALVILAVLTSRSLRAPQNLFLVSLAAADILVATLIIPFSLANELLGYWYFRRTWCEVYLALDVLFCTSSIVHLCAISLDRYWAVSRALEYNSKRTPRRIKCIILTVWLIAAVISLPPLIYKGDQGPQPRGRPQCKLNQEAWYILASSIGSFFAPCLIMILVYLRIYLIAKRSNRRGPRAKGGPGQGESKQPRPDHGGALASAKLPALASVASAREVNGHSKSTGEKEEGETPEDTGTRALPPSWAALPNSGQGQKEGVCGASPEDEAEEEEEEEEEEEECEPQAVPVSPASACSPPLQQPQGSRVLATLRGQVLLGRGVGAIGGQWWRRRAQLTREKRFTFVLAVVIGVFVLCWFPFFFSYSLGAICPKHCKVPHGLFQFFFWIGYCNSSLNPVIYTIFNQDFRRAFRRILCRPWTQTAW

D(3) dopamine receptor = D(3) dopamine receptor (Homo sapiens, UniProt P35462); test: as §1, with “DRD3” for “SIGMAR1”
[12] = molecular target: T5, Muscarinic acetylcholine receptor M5 (Homo sapiens, UniProt P08912); test: as §1, with “CHRM5” for “SIGMAR1”
T5 sequence (P08912 whole entry): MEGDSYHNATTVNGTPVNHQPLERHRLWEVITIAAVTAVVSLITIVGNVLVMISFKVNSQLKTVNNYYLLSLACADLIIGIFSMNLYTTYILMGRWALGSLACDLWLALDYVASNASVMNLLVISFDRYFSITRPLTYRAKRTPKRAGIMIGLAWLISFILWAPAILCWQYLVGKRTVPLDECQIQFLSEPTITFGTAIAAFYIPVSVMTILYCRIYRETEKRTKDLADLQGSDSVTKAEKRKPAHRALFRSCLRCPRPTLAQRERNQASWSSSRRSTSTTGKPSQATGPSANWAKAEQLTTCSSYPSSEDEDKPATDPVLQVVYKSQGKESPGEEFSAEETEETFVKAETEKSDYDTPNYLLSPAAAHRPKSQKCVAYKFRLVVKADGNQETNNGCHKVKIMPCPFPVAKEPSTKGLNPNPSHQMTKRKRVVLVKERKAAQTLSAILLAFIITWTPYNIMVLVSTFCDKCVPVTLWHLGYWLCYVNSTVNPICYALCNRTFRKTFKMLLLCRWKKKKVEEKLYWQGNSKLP

[13] = molecular target: 5-hydroxytryptamine receptor 5A (Homo sapiens, UniProt P47898); test: as §1, with “HTR5A” for “SIGMAR1”
[14] = molecular target: 5-hydroxytryptamine receptor 7 (Homo sapiens, UniProt P34969); test: as §1, with “HTR7” for “SIGMAR1”
Histamine H1 receptor = Histamine H1 receptor (Homo sapiens, UniProt P35367); test: as §1, with “HRH1” for “SIGMAR1”
[15] = molecular target: T6, Alpha-2C adrenergic receptor (Homo sapiens, UniProt P18825); test: as §1, with “ADRA2C” for “SIGMAR1”
T6 sequence (P18825 whole entry): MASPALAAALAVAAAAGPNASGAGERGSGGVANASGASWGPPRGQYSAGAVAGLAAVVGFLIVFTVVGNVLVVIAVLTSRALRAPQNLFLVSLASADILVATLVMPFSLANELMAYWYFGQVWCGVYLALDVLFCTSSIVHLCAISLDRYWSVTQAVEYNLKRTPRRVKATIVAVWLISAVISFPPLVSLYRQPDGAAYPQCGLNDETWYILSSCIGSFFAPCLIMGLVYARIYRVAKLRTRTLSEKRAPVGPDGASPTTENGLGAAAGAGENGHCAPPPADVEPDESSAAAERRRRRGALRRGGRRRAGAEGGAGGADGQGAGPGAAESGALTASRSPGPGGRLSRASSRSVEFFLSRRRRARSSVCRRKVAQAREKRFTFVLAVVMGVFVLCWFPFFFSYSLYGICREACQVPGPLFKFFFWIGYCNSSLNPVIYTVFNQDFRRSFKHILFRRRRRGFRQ

[16] = molecular target: 5-hydroxytryptamine receptor 1B (Homo sapiens, UniProt P28222); test: as §1, with “HTR1B” for “SIGMAR1”

Compound	Ki [1]	Ki [2]	Ki (D(2) dopamine receptor)	Ki [3]	Ki [4]	Ki [9]	Ki (Mu-type opioid receptor)	further results
Cc1cc(NC(=O)NCCN2CCC(O)(Cc3ccccc3)CC2)c2ccccc2n1 [PALOSURAN]	1700 nM	1090 nM	596 nM	995 nM	956 nM			Ki [5]: 1590 nM; Ki [6]: 139 nM; Ki [7]: 1020 nM
O=c1ccn([C@@H]2O[C@H](COP(=O)(O)OP(=O)(O)OP(=O)(O)O)[C@@H](O)[C@H]2O)c(=O)[nH]1			3850 nM					Ki (D(4) dopamine receptor): 8730 nM; Ki (Translocator protein): 4780 nM
O=C(c1cc2c(cc1F)OC(c1ccc(F)cc1)(c1ccc(Cl)cc1Cl)O2)N1CCOCC1 (stereo unspecified)		2540 nM			509 nM	3460 nM	3140 nM	Ki [8]: 503 nM; Ki (D(1B) dopamine receptor): 708 nM; Ki [10]: 607 nM; Ki [5]: 2660 nM; Ki [6]: 319 nM
CC(C)(C(=O)O)c1ccc(C(O)CCCN2CCC(C(O)(c3ccccc3)c3ccccc3)CC2)cc1 (stereo unspecified) [FEXOFENADINE HYDROCHLORIDE]			8810 nM					
OC1(c2ccc(Cl)cc2)CCN(Cc2c[nH]c3ccccc23)CC1		1470 nM		29.5 nM	269 nM	1400 nM	51.5 nM	Ki [11]: 602 nM; Ki (D(3) dopamine receptor): 205 nM; Ki (D(4) dopamine receptor): 569 nM; Ki [12]: 579 nM; Ki [7]: 3850 nM
COc1ccccc1N1CCN(CCCCNC(=O)c2ccc3ccccc3c2)CC1	256 nM	1670 nM		304 nM	113 nM	734 nM	249 nM	Ki [11]: 132 nM; Ki [13]: 754 nM; Ki [14]: 29.8 nM; Ki (Histamine H1 receptor): 125 nM; Ki [15]: 83.6 nM; Ki (Translocator protein): 1180 nM; Ki [16]: 166 nM
OC[C@H]1O[C@@H](n2cnc3c(NC4CCCC4)ncnc32)[C@H](O)[C@@H]1O [N6-CYCLOPENTYLADENOSINE]	2610 nM							Ki (D(1B) dopamine receptor): > 10000 nM
